Results as given in patent US9216968B2, “Heterocyclic derivative and pharmaceutical drug” (NIPPON SHINYAKU CO., LTD., priority 2011, dated 2015).
Counter-ions that a name gives are not always drawn.

Experiments:
[1] = test system: A549 cells; test: Inhibition of PGE2 production in A549 cell (IL-1β stimulated); type: cell-based, human; details: Homo sapiens, A549, 24 h, IL-1β 5 ng/well, PGE2 in culture medium
Outline: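 After IL-1β (5 ng/well) stimulation for 24 h at 37 °C, following a 60-min compound pretreatment in RPMI with 3% FBS, medium PGE2 (HTRF) and PGF2α (EIA) from human A549 cells were quantified. 100% activity set as IL-1β-induced minus basal production; IC50 calculated.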

[2] = molecular target: human mPGES-1 (Homo sapiens (Human), UniProt O14684); test: mPGES-1 inhibiting activity (microsome fractions, PGE2 by HTRF); type: biochemical; details: microsomes from CHO-K1 cells transfected with human mPGES-1; PGH2 1 μM, 4° C., 60 seconds; read-out: mPGES-1 Inhibition IC50
Outline: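 PGE2 formation read by HTRF after 60 s at 4 °C with 1 μM PGH2 substrate, following 20 min compound preincubation (1% DMSO) with human mPGES-1 microsomes from transfected CHO-K1 cells. Buffer: potassium phosphate, reduced glutathione, pH 7.4; IC50 from activity relative to enzyme-free blank.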

Chain of human mPGES-1 (O14684 whole entry): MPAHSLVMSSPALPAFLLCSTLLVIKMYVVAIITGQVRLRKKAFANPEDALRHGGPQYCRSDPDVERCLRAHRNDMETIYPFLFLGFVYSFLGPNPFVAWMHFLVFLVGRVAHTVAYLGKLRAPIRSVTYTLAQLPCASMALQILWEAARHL

IC50 [1] [nM]	IC50 [2] [nM]	SMILES
43.3	1	Cc1c(Cl)cccc1NC(=O)c1cc(NC(=O)c2ccccc2C(F)(F)F)cc2[nH]c(N3CC[C@H](N(C)C)C3)nc12 [Example 149, N-(3-Chloro-2-methylphenyl)-2-[(3S)-3-(dimethylamino)pyrrolidin-1-yl]-6-({[2-(trifluoromethyl)phenyl]carbonyl}amino)-1H-benzimidazole-4-carboxamide dihydrochloride]
5.1	1	Cc1ccc(NC(=O)c2cc(NC(=O)c3ccccc3C(F)(F)F)cc3[nH]c(C(C)(C)C)nc23)cc1Cl [Example 86, 2-tert-Butyl-N-(3-chloro-4-methylphenyl)-6-({[2-(trifluoromethyl)phenyl]carbonyl}amino)-1H-benzimidazole-4-carboxamide hydrochloride]
3.2	2.2	Cc1c(Cl)cccc1NC(=O)c1cc(NC(=O)c2ccccc2C(F)(F)F)cc2[nH]c(C3CCCC3)nc12 [Example 124, N-(3-Chloro-2-methylphenyl)-2-cyclopentyl-6-({[2-(trifluoromethyl)phenyl]carbonyl}amino)-1H-benzimidazole-4-carboxamide hydrochloride]
13.8	4.7	Cc1c(Cl)cccc1NC(=O)c1cc(NC(=O)c2cc(Cl)ccc2Cl)cc2[nH]c(C3(C)CC3)nc12 [Example 210, N-(3-Chloro-2-methylphenyl)-6-{[(2,5-dichlorophenyl)carbonyl]amino}-2-(1-methylcyclopropyl)-1H-benzimidazole-4-carboxamide hydrochloride]
850	89	COCc1nc2c(C(=O)NCc3ccc(C)cc3)cc(NC(=O)c3ccccc3C(F)(F)F)cc2[nH]1 [Example 25, 2-(Methoxymethyl)-N-(4-methylbenzyl)-6-({[2-(trifluoromethyl)phenyl]carbonyl}amino)-1H-benzimidazole-4-carboxamide hydrochloride]
43.1	6.1	COCc1nc2c(C(=O)Nc3cccc(Cl)c3C)cc(NC(=O)c3ccccc3Br)cc2[nH]1 [Example 97, 6-{[(2-Bromophenyl)carbonyl]amino}-N-(3-chloro-2-methylphenyl)-2-(methoxymethyl)-1H-benzimidazole-4-carboxamide hydrochloride]
12.2	1	CN(C)c1nc2c(C(=O)Nc3ccc4c(c3)CCC4)cc(NC(=O)c3ccccc3C(F)(F)F)cc2[nH]1 [Example 204, N-(2,3-Dihydro-1H-inden-5-yl)-2-(dimethylamino)-6-({[2-(trifluoromethyl)phenyl]carbonyl}amino)-1H-benzimidazole-4-carb oxamide hydrochloride]
150	1.9	COCc1nc2c(C(=O)NCC3CCCCCC3)cc(NC(=O)c3ccccc3C(F)(F)F)cc2[nH]1 [Example 231, N-(Cycloheptylmethyl)-2-(methoxymethyl)-6-({[2-(trifluoromethyl)phenyl]carbonyl}amino)-1H-benzimidazole-4-carboxamide hydrochloride]
7.4	1.3	Cc1c(Cl)cccc1NC(=O)c1cc(NC(=O)c2ccccc2C(F)(F)F)cc2[nH]c(N3CCC3)nc12 [Example 165, 2-(Azetidin-1-yl)-N-(3-chloro-2-methylphenyl)-6-({[2-(trifluoromethyl)phenyl]carbonyl}amino)-1H-benzimidazole-4-carboxamide hydrochloride]

Continued, molecule first:

SMILES	IC50 [1] [nM]	IC50 [2] [nM]
Cc1c(Cl)cccc1NC(=O)c1cc(NC(=O)c2c(F)cccc2Cl)cc2[nH]c([C@H]3CCCO3)nc12 [Example 127, 6-{[(2-Chloro-6-fluorophenyl)carbonyl]amino}-N-(3-chloro-2-methylphenyl)-2-[(2R)-tetrahydrofuran-2-yl]-1H-benzimidazole-4-carboxamide hydrochloride]	144	6.3
CNc1nc2c(C(=O)Nc3cccc(Cl)c3C)cc(NC(=O)c3ccccc3C(F)(F)F)cc2[nH]1 [Example 138, N-(3-Chloro-2-methylphenyl)-2-(methylamino)-6-({[2-(trifluoromethyl)phenyl]carbonyl}amino)-1H-benzimidazole-4-carboxamide hydrochloride]	87.4	2.2
Cc1c(Cl)cccc1NC(=O)c1cc(NC(=O)c2ccc(Cl)cc2Cl)cc2[nH]c(N(C)C)nc12 [Example 184, N-(3-Chloro-2-methylphenyl)-6-{[(2,4-dichlorophenyl)carbonyl]amino}-2-(dimethylamino)-1H-benzimidazole-4-carboxamide hydrochloride]	138	1
Cc1c(Cl)cccc1NC(=O)c1cc(NC(=O)c2c(F)cccc2Cl)cc2[nH]c(N(C)C)nc12 [Example 182, 6-{[(2-Chloro-6-fluorophenyl)carbonyl]amino}-N-(3-chloro-2-methylphenyl)-2-(dimethylamino)-1H-benzimidazole-4-carboxamide hydrochloride]	38.4	1.6
Cc1c(Cl)cccc1NC(=O)c1cc(NC(=O)c2cc(Cl)ccc2Cl)cc2[nH]c([C@H]3CCCO3)nc12 [Example 129, N-(3-Chloro-2-methylphenyl)-6-{[(2,5-dichlorophenyl)carbonyl]amino}-2-[(2R)-tetrahydrofuran-2-yl]-1H-benzimidazole-4-carboxamide hydrochloride]	178	59.4
COCc1nc2c(C(=O)Nc3cccc(Cl)c3C)cc(NC(=O)c3ccccc3C(F)(F)F)cc2[nH]1 [Example 11, N-(3-chloro-2-methylphenyl)-2-(methoxymethyl)-6-({[2-(trifluoromethyl)phenyl]carbonyl}amino)-1H-benzimidazole-4-carboxamide]	12.9	6.6
COC(C)(C)CNc1nc2c(C(=O)Nc3cccc(Cl)c3C)cc(NC(=O)c3c(F)cccc3Cl)cc2[nH]1 [Example 197, 6-{[(2-Chloro-6-fluorophenyl)carbonyl]amino}-N-(3-chloro-2-methylphenyl)-2-[(2-methoxy-2-methylpropyl)amino]-1H-benzimidazole-4-carboxamide hydrochloride]	34.4	5.2
CC(=O)N1CCC[C@H]1c1nc2c(C(=O)Nc3cccc(Cl)c3C)cc(NC(=O)c3ccccc3C(F)(F)F)cc2[nH]1 [Example 73, 2-[(2S)-1-Acetylpyrrolidin-2-yl]-N-(3-chloro-2-methylphenyl)-6-({[2-(trifluoromethyl)phenyl]carbonyl}amino)-1H-benzimidazole-4-carboxamide]	76.4	18.6
CC(=O)OCc1nc2c(C(=O)Nc3cccc(Cl)c3C)cc(NC(=O)c3ccccc3C(F)(F)F)cc2[nH]1 [Example 63, {4-[(3-Chloro-2-methylphenyl)carbamoyl]-6-({[2-(trifluoromethyl)phenyl]carbonyl}amino)-1H-benzimidazol-2-yl}methyl acetate]	54.8	5.6
CC(=O)N1CC(c2nc3c(C(=O)Nc4cccc(Cl)c4C)cc(NC(=O)c4ccccc4C(F)(F)F)cc3[nH]2)C1 [Example 68, 2-(1-Acetylazetidin-3-yl)-N-(3-chloro-2-methylphenyl)-6-({[2-(trifluoromethyl)phenyl]carbonyl}amino)-1H-benzimidazole-4-carboxamide hydrochloride]	> 10000	63.4
COCc1nc2c(C(=O)Nc3cccc(Cl)c3C)cc(NC(=O)c3c(F)ccc(F)c3Cl)cc2[nH]1 [Example 101, 6-{[(2-Chloro-3,6-difluorophenyl)carbonyl]amino}-N-(3-chloro-2-methylphenyl)-2-(methoxymethyl)-1H-benzimidazole-4-carboxamide hydrochloride]	118	77.8
COCc1nc2c(C(=O)NCc3ccccc3Cl)cc(NC(=O)c3ccccc3C(F)(F)F)cc2[nH]1 [Example 24, N-(2-Chlorobenzyl)-2-(methoxymethyl)-6-({[2-(trifluoromethyl)phenyl]carbonyl}amino)-1H-benzimidazole-4-carboxamide hydrochloride]	751	10.5
COCc1nc2c(C(=O)Nc3ccc(C(C)(C)C)cc3)cc(NC(=O)c3ccccc3C(F)(F)F)cc2[nH]1 [Example 27, N-(4-tert-Butylphenyl)-2-(methoxymethyl)-6-({[2-(trifluoromethyl)phenyl]carbonyl}amino)-1H-benzimidazole-4-carboxamide hydrochloride]	16	2.4
Cc1c(Cl)cccc1NC(=O)c1cc(NC(=O)c2ccccc2C(F)(F)F)cc2[nH]c(C(C)(C)CCl)nc12 [Example 57, N-(3-Chloro-2-methylphenyl)-2-(1-chloro-2-methylpropan-2-yl)-6-({[2-(trifluoromethyl)phenyl]carbonyl}amino)-1H-benzimidazole-4-carboxamide]	16.8	0.5
Cc1c(Cl)cccc1NC(=O)c1cc(NC(=O)c2c(F)cccc2Cl)cc2[nH]c(NCC(C)(C)CO)nc12 [Example 200, 6-{[(2-Chloro-6-fluorophenyl)carbonyl]amino}-N-(3-chloro-2-methylphenyl)-2-[(3-hydroxy-2,2-dimethylpropyl)amino]-1H-benzimidazole-4-carboxamide hydrochloride]	108	4.6
COCC(C)(C)CN(C)c1nc2c(C(=O)Nc3cccc(Cl)c3C)cc(NC(=O)c3ccccc3C(F)(F)F)cc2[nH]1 [Example 173, N-(3-Chloro-2-methylphenyl)-2-[(3-methoxy-2,2-dimethylpropyl)(methyl)amino]-6-({[2-(trifluoromethyl)phenyl]carbonyl}amino)-1H-benzimidazole-4-carboxamide hydrochloride]	60.8	1.1
